Columns and labels:
[1] = tested on: lysosome in U2OS cells; assay: Inhibitory lysosomal mechanism of action (LysoTracker Red and LAMP1 staining); type: cell-based; conditions: for LAMP1 staining / LysoTracker Red staining: at 304 for 3 hours; for LysoTracker Red staining: LysoTracker Red for the final hour; for intensity of LysoTracker Red staining (image analysis, line scan): indicating an increase in pH
Experimental: To determine deacidification of the lysosome, cells were incubated with LysoTracker Red, a dye that localizes to the lysosome based on the low acidity of the compartment. If the lysosome is no longer acidic, there is a loss in the amount of LysoTracker Red staining. Lysosomal inhibition was further determined by immunofluorescence of lysosome-associated membrane protein-1 (LAMP1). If the lysosome is inhibited, lysosomal turnover should decrease and an increase in the amount of LAMP1 staining would be apparent. U2OS cells were treated with Example 7 or Example 26 at […] for 3 hours, supplementing LysoTracker Red for the final hour.
Using image analysis software, the mean intensities of both the LAMP1 and LysoTracker Red staining were measured and represent altered intensity level between treatments on intensity plots. Individual points were measured using a line scan on the image analysis software, which measures the intensity across the path of a line at any given point. Not only does the presence of LAMP1 positive membranes increases, but the intensity in LAMP1 staining also increases with Example 7 and Example 26 treatment. The inverse relationship in intensity holds true for LysoTracker Red staining.

[2] = tested on: PLX-4032 resistant melanoma cell lines UACC1093 and UACC647; assay: Combination interaction tumor cell viability (ATP luminescence), 72 hours; type: cell-based
Experimental: (§1) Tumor cell lines (H292, HCT116, A375, HCC1569, A498, N87, UACC1093, and UACC647) were cultured in RPMI 1640 supplemented with 5% fetal bovine serum and housed in a 5% CO2 Incubator at 37° C.
(§2) For combination interaction experiments, cells were plated on a 96 well microplate and allowed 24 hours to adhere. Drugs were administered to the drug plate by the following: compound stock solutions (20 mM) or combination agent stock solutions (20 mM) were added to a drug plate where a 1:10 dilution was performed. Following the dilutions, 2 μl of each VT-062 and standard agent was transferred to the corresponding wells in the cell-containing 96-well plate with 196 μl of growth media. The compound and combination agent was concurrently tested over a range of 0.1 pM-100 μM for 72 hours. Following 72 hours of continuous exposure cell viability was determined by measuring the ATP activity using a commercially available cell viability assay kit. Luminescence intensity was used to relative drug activity compared to control wells and used to graphically determine the IC50 of combination.

[3] = tested on: Tumor cell lines (H292, HCT116, A375, HCC1569, A498, N87, UACC1093, and UACC647); assay: Single agent tumor cell viability (ATP luminescence), 72 hours; type: cell-based; conditions: in the cell lines tested (FIGS. 1A, 1B, and C)
Experimental: as §1
as §2, with “single agent IC50 determination,” for “combination interaction experiments,”, “(10” for “(20 mM) or combination agent stock solutions (20”, “test compound” for “each VT-062 and standard agent”, “198” for “196”, “compounds were” for “compound and combination agent was concurrently”, “IC50.” for “IC50 of combination.”

[4] = tested on: A375 Human melanoma tumor cells; assay: Human tumor xenograft study; type: in vivo; conditions: A375 xenograft in female mice, oral, daily for 21 days; after 25 days
Experimental: Female mice were inoculated subcutaneously in the right flank with 0.1 ml of a 50% RPMI/50% Matrigel™ (BD Biosciences, Bedford, Mass.) mixture containing a suspension of A375 Human melanoma tumor cells (approximately 5×10^6 cells/mouse).
When tumor reached approximately 130 mg, mice were randomized into treatment groups. Body weights were recorded when the mice were randomized and were taken twice per week (on Study Days 3 and 7 for each cycle) thereafter in conjunction with tumor measurements. Treatment began on the day of randomization. Example 10 was delivered orally in a vehicle consisting of 5% DMA, 10% propylene glycol, 20% PEG 400, and 65% sterile water. Example 10 was administered daily for 21 days.

| SMILES | intensity in LAMP1 staining (image analysis, line scan) [1] | LAMP1 staining [1] | LysoTracker Red staining [1] | intensity of LysoTracker Red staining (image analysis, line scan) [1] | increase in tumor growth inhibition in combination than Example 10 alone ([2]; in combination with PLX-4032, UACC1093 and UACC647 (FIGS. 4A and 4C)) | increase in tumor growth inhibition in combination than Example 10 alone ([2]; in combination with Temozelomide, UACC1093 and UACC647 (FIGS. 4B and 4D)) | tumor cell growth inhibition [3] | tumor growth inhibition (tumor weight) [4] |
| --- | --- | --- | --- | --- | --- | --- | --- | --- |
| COc1ccc2nc3cc(Cl)ccc3c(NCCCCN3CCN(C)CC3)c2c1 [Example 7, 6-Chloro-2-methoxy-N-(4-(4-methylpiperazin-1-yl)butyl)acridin-9-amine] | increases | substantial increases in LAMP1 staining | essentially ablated LysoTracker Red staining | less intense LysoTracker Red staining | – | – | – | – |
| COc1ccc2nc3cc(Cl)ccc3c(NCCCCN(C)CC3CC3)c2c1 [Example 10, N^1-(6-Chloro-2-methoxyacridin-9-yl)-N^4-(cyclopropylmethyl)-N^4-methylbutane-1,4-diamine] | – | – | – | – | 2.6-3.25% | 7-30% | more than 75% | greater than 50% |
| CCN1CCC(Nc2c3c(nc4cc(Cl)ccc24)CCCC3)CC1 [Example 26, 6-Chloro-N-(1-ethylpiperidin-4-yl)-1,2,3,4-tetrahydroacridin-9-amine] | increases | substantial increases in LAMP1 staining | essentially ablated LysoTracker Red staining | less intense LysoTracker Red staining | – | – | – | – |
